# Laboratory results reported in patent US8026231B2, “Aminothiolester compounds, pharmaceutical and cosmetic compositions containing same and uses thereof” (CNRS, priority 2000, dated 2011).
# What was measured:
# [1] = test system: normal human prostate cells; test: Combination of two compounds of the invention on normal human prostate cells; type: cell-based; conditions: 2 μM
# Description: (§1) 10^5 normal human prostate cells or 10^5 cancerous human prostate cells (DU145) are incubated in various wells of a microplate in 1 ml of culture medium.
# (§2) The compounds are added 4 hours after placing the cells in the wells.
# (§3) After 72 hours, the cells are removed at different times. The DU145 cells or the normal cells are washed twice with PBS and recovered directly with 0.1M sodium chloride.
# (§4) The effect on the growth of the DU145 cells or the normal cells is measured by protein assay according to the Lowry method (Lowry, O. H., Rosenbrough, N. J., Farr, A. L. and Randall, J. Biol. Chem. 193, 265-275, (1951)) and DNA assay by the Hoechst method (West, D. C., Sattar, A. and Kumar, S., Anal. Biochem. 147, 289-295, (1985)).
# BAF3-bcl2 G21 cells = test: Apoptosis induction (DNA fragmentation) in BAF3-bcl2 clone G21, 24 h; type: cell-based, mouse
# Description: (§5) The BAF3-bcl2 cells correspond to BAF3 cells (mouse lymphocyte cells) tranfected with the bcl2 gene. Among these cells, four lines known as H16, G18, B14 and G21 overexpress the bcl2 gene.
# (§6) Whereas the BAF3-b0 cells undergo apoptosis (more than 80% of the cells) in the absence of interleukin 3 (IL3) in 16 hours [according to Collins, M. K. L., Marvel, J., Malde, P. & Lopez-Rivas, A., J. Exp. Med. 176, 1043-1051, (1992)], the BAF3-bcl2 cells show no sign of apoptosis in the absence of IL3. They are thus apoptosis-resistant.
# (§7) The procedure which was used is as follows: • The BAF3-b0 or BAF3-bcl2 cells, cultured in the presence of IL3, were labelled by a method adapted from that disclosed in Wright, S. et al., J. of Cell. Biochem. 48, 344-355, (1992).
# (§8) 10^5 cells/ml were incubated with 4.62 KBq.ml^−1 [^3H]-thymidine for 40 hours at 37° C. After two washes with culture medium, 2.5×10^6 cells were cultured in the presence of the test compound.
# (§9) After incubating for 24 hours, these cells were recovered by centrifugation at 400×g for 5 minutes and washed 3 times with PBS buffer. The cells recovered in the pellet were lysed in 2 ml of 0.1% Triton X-100, 20 mM EDTA, 5 mM Tris pH 8 and centrifuged at 30 000×g at 4° C. for 30 minutes.
# (§10) The supernatants were recovered and the pellets dissolved in 0.3 ml of 0.5N NaOH.
# (§11) Aliquots of the culture medium (1 ml), of the supernatant (0.3 ml) and of the dissolved pellet (0.1 ml) were assayed in a scintillation counter.
# (§12) The percentage of DNA fragments is calculated in the following way:
# (§13) The percentage of fragmentation of the DNA is a direct measure of the apoptosis which the cells have undergone.
# BAF3-bcl2 B14 cells = test: Apoptosis induction (DNA fragmentation) in BAF3-bcl2 clone B14, 24 h; type: cell-based, mouse
# Description: as §5, §6, §7, §8, §9, §10, §11, §12, §13
# DU145 cells = test: Combination of two compounds of the invention on the growth of DU145 cells; type: cell-based, human; conditions: 2 μM
# Description: as §1, §2, §3, §4
# MRC5 cells = test: Growth of MRC5 cells (protein and DNA assay); type: cell-based, human; conditions: 50% inhibition of growth
# Description: (§14) The cells used correspond to various cell lines: human lung normal embryonic fibroblasts (MRC5), mouse melanoma cells (B16), mouse lymphocytic leukaemia cells (L1210) and L1210T cells obtained by infecting L1210 cells with a retroviral vector bearing human ALDH1 cDNA.
# The procedure used for the tests on the B16 and MRC5 cells is as follows: • The test compounds are added 4 hours after placing the cells in the wells. After 72 hours, the cells are removed at different times. The B16 and MRC5 cells are washed twice with PBS and recovered directly with 0.1M sodium chloride.
# The effect on the growth of the B16 and MRC5 cells is measured by protein assay according to the Lowry method (Lowry, O. H., Rosenbrough, N. J., Farr, A. L. and Randall, J. Biol. Chem. 193, 265-275, (1951)) and DNA assay by the Hoechst method (West, D. C., Sattar, A. and Kumar, S., Anal. Biochem. 147, 289-295, (1985)).
# (§15) The IC50 concentration is the concentration corresponding to a 50% inhibition of growth of the cells.
# BAF3-bcl2 G18 cells = test: Apoptosis induction (DNA fragmentation) in BAF3-bcl2 clone G18, 24 h; type: cell-based, mouse
# Description: as §5, §6, §7, §8, §9, §10, §11, §12, §13
# L1210 cells = test: Growth of L1210 cells (viable cell count, Trypan blue); type: cell-based, mouse; conditions: 50% inhibition of growth
# Description: as §14
# The procedure used for the tests on the L1210 cells is as follows: • 10^5 cells are incubated in the various wells of a microplate in 1 ml of culture medium. After incubating for 4 hours, the test compounds are added to the wells containing the L1210 cells.
# For the L1210 cells, the growth is measured by counting the viable cells in the presence of 0.1% Trypan blue.
# as §15
# K562 cells = test: Growth of K562 cells (control, no MDR overexpression); type: cell-based, human; conditions: increasing concentrations, 72 h, FIGS. 7 and 8
# Description: 10^5 cells were incubated in the various wells of a microplate in 1 ml of culture medium. These are R7 cells, on the one hand, and K562 cells, on the other hand.
# After incubating for 4 hours, the test compound (compound of Example 1 according to the invention, on the one hand, and daunorubicin, on the other hand) was added to the wells containing the cells.
# After 72 hours, the cells were collected at different times.
# The growth of the cells was measured by counting the viable cells in the presence of 0.1% Trypan blue.
# FIGS. 7 and 8 respectively represent the percentage inhibition (I %) by daunorubicin and the compound of Example 1 on the growth of the R7 and K562 cells, obtained at increasing concentrations C. The results obtained with the K562 cells are symbolized by ♦ and those obtained with the R7 cells are symbolized by ▴.
# BAF3-b0 cells = test: Apoptosis induction (DNA fragmentation) in BAF3-b0 cells, 24 h; type: cell-based, mouse
# Description: as §5
# Hereinbelow, the cells known as BAF3-b0 correspond to BAF3 cells not transfected with the bcl2 gene.
# as §6, §7, §8, §9, §10, §11, §12, §13
compound,measurement,setting,value
"CSC(=O)C#CC(C)(C)N(C)C [Example 1, S-methyl 4-dimethyl-amino-4-methyl-2-pentynethioate]",% Inhibition of normal human prostate cells,[1],3.7%
same,DNA fragmentation (%),"BAF3-bcl2 G21 cells; G21, 1 μM",0%
same,DNA fragmentation (%),"BAF3-bcl2 G21 cells; G21, 2 μM",5.8%
same,DNA fragmentation (%),"BAF3-bcl2 G21 cells; G21, 4 μM",29.3%
same,DNA fragmentation (%),"BAF3-bcl2 G21 cells; G21, 8 μM",71.8%
same,DNA fragmentation (%),"BAF3-bcl2 B14 cells; B14, 1 μM",0%
same,DNA fragmentation (%),"BAF3-bcl2 B14 cells; B14, 2 μM",2.0%
same,DNA fragmentation (%),"BAF3-bcl2 B14 cells; B14, 4 μM",44.1%
same,DNA fragmentation (%),"BAF3-bcl2 B14 cells; B14, 8 μM",90.0%
same,% Inhibition of DU145 cells,DU145 cells,21.3%
same,IC50,MRC5 cells,8.4 µM
same,DNA fragmentation (%),"BAF3-bcl2 G18 cells; G18, 1 μM",0.6%
same,DNA fragmentation (%),"BAF3-bcl2 G18 cells; G18, 2 μM",7.3%
same,DNA fragmentation (%),"BAF3-bcl2 G18 cells; G18, 4 μM",52.7%
same,DNA fragmentation (%),"BAF3-bcl2 G18 cells; G18, 8 μM",84.3%
same,IC50,L1210 cells,1.2 µM
same,Inhibition of the growth of the K562 cells,K562 cells,inhibitory effect obtained at the same concentrations on the growth of the K562 cells
same,DNA fragmentation (%),"BAF3-b0 cells; b0, 1 μM",5.0%
same,DNA fragmentation (%),"BAF3-b0 cells; b0, 2 μM",10.6%
same,DNA fragmentation (%),"BAF3-b0 cells; b0, 4 μM",46.4%
same,DNA fragmentation (%),"BAF3-b0 cells; b0, 8 μM",71.1%
